Earlier results, collected in patent US20010044101A1, “IN VITRO METHOD FOR PREDICTING THE EV[…] OF A PROTEIN TO A DRUG TARGETED THEREAGAINST” (priority 1994, published 2001).
Read-outs that look alike come from different tables or passages of the source.

Test system: HIV-1

## (-)-2′-deoxy-5-fluoro-3′-thiacytidine [FTC]
Fourth passage of the wild-type HIV-1 progeny, MT-4 cells, increasing FTC concentration, read-out: IC50 (50% inhibitory concentration)
  IC50: > 50 µM
Passage 6 virus, tested at higher compound concentrations, read-out: IC50
  IC50: > 250 µM
Second passage of the AZT-resistant HIV-1 progeny, MT-4 cells, increasing FTC concentration, read-out: IC50 (50% inhibitory concentration)
  IC50: > 50 µM
